Experimental data published in patent US20050192279A1, “Pyridazinones as antagonists of alpha4 integrins” (priority 2004, published 2005).

Target: T1, human α4β7 integrin (Homo sapiens, UniProt P13612+P26010)
T1 construct: expressed in transfected cells; host or cells: K562 cells, stably transfected
T1 sequence (P13612 34-1032): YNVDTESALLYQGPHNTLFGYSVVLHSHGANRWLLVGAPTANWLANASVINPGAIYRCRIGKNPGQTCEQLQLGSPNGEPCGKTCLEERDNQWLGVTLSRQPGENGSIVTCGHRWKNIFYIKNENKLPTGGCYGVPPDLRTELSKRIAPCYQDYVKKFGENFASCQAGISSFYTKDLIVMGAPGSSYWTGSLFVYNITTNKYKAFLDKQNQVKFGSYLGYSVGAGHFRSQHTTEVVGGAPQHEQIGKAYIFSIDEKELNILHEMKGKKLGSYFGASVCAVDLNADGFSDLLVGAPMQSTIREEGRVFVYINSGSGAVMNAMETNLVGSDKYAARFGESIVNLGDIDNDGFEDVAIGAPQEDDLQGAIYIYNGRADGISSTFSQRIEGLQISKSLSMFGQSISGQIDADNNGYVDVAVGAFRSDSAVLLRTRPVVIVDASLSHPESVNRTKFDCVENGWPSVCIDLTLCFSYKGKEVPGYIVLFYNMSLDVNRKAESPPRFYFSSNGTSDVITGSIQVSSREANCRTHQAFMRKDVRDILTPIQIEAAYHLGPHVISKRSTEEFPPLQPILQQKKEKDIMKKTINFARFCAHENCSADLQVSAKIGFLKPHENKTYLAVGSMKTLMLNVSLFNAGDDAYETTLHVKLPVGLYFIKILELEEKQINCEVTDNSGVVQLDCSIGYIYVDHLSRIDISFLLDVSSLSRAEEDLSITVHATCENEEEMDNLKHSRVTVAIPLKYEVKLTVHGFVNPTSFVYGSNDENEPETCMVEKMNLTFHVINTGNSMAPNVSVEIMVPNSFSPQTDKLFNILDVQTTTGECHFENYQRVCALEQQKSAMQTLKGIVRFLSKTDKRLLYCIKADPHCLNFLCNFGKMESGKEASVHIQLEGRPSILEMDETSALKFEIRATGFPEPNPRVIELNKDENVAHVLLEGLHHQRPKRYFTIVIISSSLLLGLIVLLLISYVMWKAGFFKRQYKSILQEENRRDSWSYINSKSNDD
T1 sequence (P26010 20-798): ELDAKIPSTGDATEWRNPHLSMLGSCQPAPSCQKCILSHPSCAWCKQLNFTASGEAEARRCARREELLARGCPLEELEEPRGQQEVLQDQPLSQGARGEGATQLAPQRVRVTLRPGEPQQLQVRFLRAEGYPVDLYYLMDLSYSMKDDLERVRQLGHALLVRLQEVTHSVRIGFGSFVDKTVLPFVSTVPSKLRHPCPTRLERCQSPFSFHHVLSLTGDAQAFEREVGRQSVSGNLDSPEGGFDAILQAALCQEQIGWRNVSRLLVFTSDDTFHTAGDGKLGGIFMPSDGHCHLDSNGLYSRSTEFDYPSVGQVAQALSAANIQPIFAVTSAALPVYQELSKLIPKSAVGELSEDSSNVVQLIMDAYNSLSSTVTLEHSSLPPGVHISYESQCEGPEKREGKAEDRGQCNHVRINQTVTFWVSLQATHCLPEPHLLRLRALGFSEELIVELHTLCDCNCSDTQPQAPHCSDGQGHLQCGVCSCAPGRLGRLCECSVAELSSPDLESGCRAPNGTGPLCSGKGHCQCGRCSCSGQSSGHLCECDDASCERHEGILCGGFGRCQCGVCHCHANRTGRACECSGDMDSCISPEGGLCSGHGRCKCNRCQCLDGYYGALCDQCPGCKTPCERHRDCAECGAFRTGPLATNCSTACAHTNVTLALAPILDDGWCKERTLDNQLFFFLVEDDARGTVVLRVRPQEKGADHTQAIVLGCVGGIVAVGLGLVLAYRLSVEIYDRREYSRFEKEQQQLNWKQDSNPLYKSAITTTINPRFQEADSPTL
Assay: α4β7-K562 Cell Adhesion Assay (α4β7 Mediated Adhesion/MAdCAM-1)
Type: cell-based
Settings: α4β7-K562 cell adhesion to hMAdCAM-1; read-out: α4β7 IC50
Outline: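 Anti-FLAG plates coated 1 h at 4° C with FLAG-hMAdCAM-1 in PBS pH 7.4, 1% BSA, 1 mM Mn2+. Stably transfected K562 cells expressing human α4β7, labelled with CFDA-SE, adhered with compound 1 h at room temperature. After four washes, bound cells lysed in 0.1 M NaOH for fluorescence read-out.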

Compared with COc1cnn(CC(N)=O)c(=O)c1-c1ccc(C[C@H](NC(=O)c2c(Cl)cccc2Cl)C(=O)O)cc1 [Cpd 5], COc1cnn(CC(=O)O)c(=O)c1-c1ccc(C[C@H](NC(=O)c2c(Cl)cccc2Cl)C(=O)O)cc1 [Cpd 11] is 2-fold higher in IC50: 1 nM for the first, 2 nM for the second.

Going from COc1cnn(CCN2CCOCC2)c(=O)c1-c1ccc(C[C@H](NC(=O)c2c(Cl)cccc2Cl)C(=O)O)cc1 [Cpd 10] to O=C(N[C@@H](Cc1ccc(-c2c(N3CCOCC3)cnn(CCO)c2=O)cc1)C(=O)O)c1c(Cl)cccc1Cl [Cpd 61], the IC50 rises from 2 nM to 20 nM (10-fold).

Compared with COc1cnn(CCO)c(=O)c1-c1ccc(C[C@H](NC(=O)c2c(Cl)cccc2Cl)C(=O)O)cc1 [Cpd 15, (S)-2-(2,6-Dichloro-benzoylamino)-3{4-[2-(2-hydroxy-ethyl)-5-methoxy-3-oxo-2,3-dihydro-pyridazin-4-yl]-phenyl}-propionic acid], COc1cnn(CCO)c(=O)c1-c1ccc(C[C@H](NC(=O)c2c(Cl)cccc2Cl)C(=O)OCCO)cc1 [Cpd 199] is 680-fold higher in IC50: 2 nM for the first, 1370 nM for the second. The first is the more potent here.

Going from CNc1cnn(CC(C)=O)c(=O)c1-c1ccc(C[C@H](NC(=O)c2c(Cl)cccc2Cl)C(=O)O)cc1 [Cpd 18] to Cn1ncc(N)c(-c2ccc(C[C@H](NC(=O)c3c(Cl)cccc3Cl)C(=O)O)cc2)c1=O [Cpd 46], the IC50 rises from 3 nM to 13 nM (4.3-fold). The first is the more potent here.

O=C(N[C@@H](Cc1ccc(-c2c(OCc3cccnc3)cnn(CCO)c2=O)cc1)C(=O)O)c1c(Cl)cccc1Cl [Cpd 30] and O=C(N[C@@H](Cc1ccc(-c2c(OCC3CC3)cnn(CCO)c2=O)cc1)C(=O)O)c1c(Cl)cccc1Cl [Cpd 35] are within 1.5-fold of each other in IC50: 6 nM for the first, 8 nM for the second.

Compared with COc1cnn(C)c(=O)c1-c1ccc(C[C@H](NC(=O)[C@@H]2C3CCC(CC3)N2C(=O)CCc2ccccc2)C(=O)O)cc1 [Cpd 89, 3-[4-(5-Methoxy-2-methyl-3-oxo-2,3-dihydro-pyridazin-4-yl)-phenyl]-2(S)-{[2-(3-phenyl-propionyl)-2-aza-bicyclo[2.2.2]octane-3(S)-carbonyl]-amino}-propionic acid], COC(=O)[C@H](Cc1ccc(-c2c(OC)cnn(C)c2=O)cc1)NC(=O)c1c(Cl)cccc1Cl [Cpd 151] is 5.8-fold higher in IC50: 47 nM for the first, 274 nM for the second.

Going from COc1cnn(CCO)c(=O)c1-c1ccc(C[C@H](NC(=O)OC(C)(C)C)C(=O)O)cc1 [Cpd 120] to COc1cnn(C)c(=O)c1-c1ccc(C[C@H](NC(=O)c2c(Cl)cccc2Cl)C(=O)OCC(C)(C)C)cc1 [Cpd 207], the IC50 rises from 113 nM to 2690 nM (24-fold).

For Cn1ncc(N)c(-c2ccc(C[C@H](NC(=O)c3c(Cl)cccc3Cl)C(=O)OCCO)cc2)c1=O [Cpd 232], the IC50 was > 5000 nM.
